In US20260365696A1, “INHIBITORS OF PTP1B / NCK1 INTERACTION AND METHODS OF MAKING AND USING SAME” (Radella Pharmaceuticals LLC, priority 2023, published 2026):

How the values were obtained:
[1] = Caco-2 permeability assay; type: in vitro ADME, human; settings: human, Papp(B-A)/Papp(A-B), 120 min
Procedure: (§1) Permeability (Caco-2 assay): Caco 2 cells were used as an in vitro model of the human intestinal epithelium and to permit assessment of the intestinal permeability of potential drugs. Test compound was added to either the apical or basolateral side of a confluent monolayer of Caco 2 cells and permeability was measured by monitoring the appearance of the test compound on the opposite side of the monolayer using LC-MS/MS. When performing a bi-directional assay, the efflux ratio (ER) was calculated from the ratio of B-A and A-B permeabilities.
(§2) Briefly, Caco 2 cells obtained (ATCC) were used between passage numbers 40 and 60. Cells were seeded on to Transwell plates at 1×10^5 cells/cm^2. The cells were cultured in DMEM and media was changed every two or three days. On day 20, the permeability study was performed. […]
(§3) Test and control compounds were quantified by LC-MS/MS cassette analysis using a 7-point calibration with appropriate dilution of the samples. […] The starting concentration (C0) was determined from the dosing solution and the experimental recovery was calculated from C0 and both apical and basolateral compartment concentrations.
(§4) Data Analysis: The permeability coefficient (Papp) for each compound was calculated from the following equation: […]
(§5) For bi directional experiments, an efflux ratio (ER) was calculated from mean A-B and B-A data using the following equation: […]

[2] = test system: Caco-2 cells; assay: Caco-2 permeability assay; type: in vitro ADME, human
Procedure: as §1, §2, §3, §4, §5

[3] = test system: LDLR−/− mice; assay: LDLR−/− mouse model of atherosclerosis; type: in vivo; settings: 30 mg/kg IP daily
Source text: Animals: All animals were housed and tested following European (Directive on the Protection of Animals used for Scientific Purposes, 2010/63/EU) and UK Home Office regulations. Experiments were approved by the University Ethics Board and carried out in accordance with the Animal (Scientific Procedures) Act 1986 and following ARRIVE guidelines. LDLR−/− male mice (~6-7 weeks old) were purchased from Jackson, US. All mice received a high fat/high cholesterol diet (42% fat plus 0.2% cholesterol, #TD.88137, Envigo, US), to induce atherosclerosis phenotype associated with obesity and type 2 diabetes. All mice had ad libitum access to food and water and were kept in a 12 h light/dark cycle.
Treatments: After 8 weeks of high fat/high cholesterol diet feeding, mice were randomized in to control (n=10) or MD20 30 mg/kg (n=9) groups. MD20 compound (30 mg/kg) was administered once daily via intraperitoneal (IP) injection for 7 weeks, whereas control mice received a daily IP injection of vehicle (PBS). MD20 was kept at −20 °C and dissolved in sterile phosphate buffered saline (PBS) freshly every day before the injection. Two mice died during the study and final numbers per group were: control (n=8) and MD20 30 mg/kg (n=9).
Bodyweights and body mass composition: Body weights were recorded during the study, and fat and lean mass composition was analyzed using an EchoMRI scanner (EchoMedical Systems, Houston, TX, U.S.A.).
Metabolic measurements: All animals were 5 h-fasted before metabolic tests. Tail blood glucose was measured using AlphaTRAK 2 glucose strips and glucometer (Abbot, UK).
Glucose and insulin tolerance tests (GTT, ITT) were performed by IP injection of 2 mg/g of glucose (GTT) or 0.6 mU/g insulin (ITT), and glucose levels were measured at 15, 30, 60 and 90 min post-injection.
Serum and liver assays: Trunk-derived blood was collected from 5 h-fasted mice into serum separator microtubes and kept at −80 °C. Serum was used for insulin (#EZRMI-13K, Merck), leptin (#90030, Crystal Chem), free fatty acids (FFA; #mak044, Sigma-Aldrich), cholesterol (#MAK043, Sigma Aldrich), and alanine and aspartate aminotransferase (ALT and AST; ab105134 and ab105135, Abcam) analyses. Serum and liver triglycerides were determined using triglyceride reagents (#T2449, #F6428, #G7793, Sigma Aldrich).
Aortic plaques analyses: Hearts with aortas attached were immersed in formalin and stored at 4 °C for 24 h following dissection, and transferred in to PBS thereafter. Aortas were sub-dissected under microscope and prepared for staining with Oil Red O. Images were captured using a light microscope. Plaque formation was quantified using ImageJ software, and results were expressed as % plaque area.
Statistical analyses: Data were reported as means±SEM and analyzed using one- or two-way ANOVA with Bonferroni post hoc tests, as appropriate. GraphPad Prism (V8, GraphPad Software, Inc., San Diego, California, USA) was used for statistical analyses. P-values <0.05 were considered significant.

Ac-PRPPKR-NH2 [MD20, Ac-PRPPKR-NH2]
efflux ratio at 2 h [1]: 0.252
permeation of cells relative to antihypertensive drugs [2]: able to permeate the cells at the same rate as some antihypertensive drugs (e.g., nicardipine)
% change in fat mass ([3]; vs control): a trend to ward a decreased % change in fat mass
aortic plaque area ([3]; vs control): No statistically significant differences
% change in body weights ([3]; vs vehicle): significant interaction
body weights during the weeks of treatment ([3]; vs vehicle): significant interaction
fat mass content ([3]; vs vehicle): No statistically significant differences
lean mass ([3]; vs vehicle): No significant changes in lean mass
raw body weights ([3]; vs vehicle): No statistically significant differences
glucose tolerance test (GTT) ([3]; 2 mg/g glucose): No statistically significant differences
insulin tolerance test (ITT) ([3]; 0.6 mU/g insulin): not statistically significant, slight improvements could be seen
hepatic triglycerides ([3]; 5 h-fasted): No statistically significant differences
serum ALT ([3]; 5 h-fasted): No statistically significant differences
serum AST ([3]; 5 h-fasted): No statistically significant differences
serum cholesterol ([3]; 5 h-fasted): No statistically significant differences
serum free fatty acids ([3]; 5 h-fasted): No statistically significant differences
serum insulin ([3]; 5 h-fasted): No statistically significant differences
serum leptin ([3]; 5 h-fasted): No statistically significant differences
serum triglycerides ([3]; 5 h-fasted): No statistically significant differences
